Measured values taken from US20240091267A1, “PRE-TREATMENT OF MSC WITH PPARB/DELTA AGONIST FOR TREATMENT OF ISCHEMIA-REPERFUSION INJURY” (Universite de Montpellier, priority 2020, published 2024).
Like-named read-outs stand apart in the source and are kept apart here.

Key:
H9c2 cardiomyocytes = test: Transwell co-culture of MSC with H9c2 exposed to H2O2, specific DNA fragmentation in H9c2; type: cell-based, rattus norvegicus; conditions: vs naive MSC
Procedure: FIG. 7: Increased anti-apoptotic effects of PPARβ/δ-primed MSC on cardiomyocytes. (A) After 24 hours of MSC pharmacological preconditioning using PPARβ/δ agonist, cells were co-cultured using transwells (upper chamber) with H9c2 (lower chamber). Both cultures were exposed to 4 hours of 350 μM of H2O2 in minimal medium (serum deprivation). At the end of the protocol, specific DNA fragmentation was quantified in H9c2 cells and values were compared with those obtained for co-cultures with naive MSC or MSC pre-treated with PPARβ/δ antagonists (GSK0660 or GSK03787) and exposed to 350 H2O2μM (B, C, D) Scatter dot plot and bars were presented for specific DNA fragmentation quantified in H9c2 at the end of the protocols. Data (mean±SD for each group of treatment) were normalized by values obtained with naive MSC/H2O2 and compared using Kruskal-Wallis (Dunn's post hoc test). (B): data were obtained using the condition 1 protocol. (C): the condition 2 protocol P was followed and p value was noted **** for p<0.0001 (MSC, n=16 independent cultures vs MSC/H2O2, n=18). For the data obtained with condition 3 protocol (D), p value was noted * for p=0.0436 (MSC+1 μM GSK0660/H2O2, n=6 vs MSC/H2O2, n=10).
H9c2, rattus norvegicus cardiomyocytes, were cultured in Dulbecco's modified Eagle's medium (DMEM), supplemented with 10% fetal bovine serum (FBS), 100 Units/mL penicillin, and 100 μg/mL streptomycin. To induce apoptosis, H9c2 were cultured in a minimal medium (without FBS) containing 350 μM of H2O2 during 4 hours. In order to evaluate the effect of MSCs on cardiomyocytes, a co-culture assay was designed using the transwell system to avoid cell-cell contact. 15,000 cardiomyocytes (lower part) were plated per well of a 12-well dish with or 15,000 MSC (upper part) in presence of 350 OA of H2O2. Two different protocols of co-culture were performed. In protocol 1, H9c2 and co-cultured MSC were exposed to H2O2(with serum deprivation). In protocol 2, H9c2 were exposed to H2O2 in minimal medium during 4 hours and after a wash, cells were co-cultured in complete medium with MSC. In protocol 3, H9c2 were cultured in presence of H2O2 during 4 hours in regular medium deprived in serum, which was continued for an extra 1 hour. Then the co-culture of H9c2 with MSC was performed in complete medium for 1 hour. At the end of all protocols, H9c2 were recovered for apoptosis and RT-qPCR analysis.
DNA fragmentation was quantified in vitro on cell lysates with an enzyme-linked immunosorbent assay kit (Cell Death ELISA; Roche Diagnostics) designed to measure of histone-complexed DNA fragments (mono- and oligonucleosomes) out of the cytoplasm of cells after the induction of apoptosis.
To determine the role of PPARβ/δ on MSC-induced protective effect on cardiomyocytes we designed and developed three protocols in order to mimic the stress received by MSC when transplanted into infarcted tissues. The first protocol consisted in co-culturing naive or primed MSC with H9c2 exposed to 350 μM of H2O2 for 4 hours using transwell. The second protocol consisted in exposing […] μM of H2O2 for 4 hours before to co-culture them with naive or primed MSC in a complete medium. The third protocol consisted in exposing H9c2 to 350 μM of H2O2 for 4 hours followed by serum deprivation for 1 hour before to co-culture them with naive or primed MSC in a complete medium (FIG. 7A).

[1] = test system: isolated perfused hearts from C57B16 mice; test: Ex vivo Langendorff ischemia-reperfusion, infarct size, effect of preconditioning duration (Example 3); parameters: species or system mouse (C57BL/6); conditions: 4.10^5 cells/heart; for Decrease in infarct size: vs IR
[2] = 3 mg/kg/day, mice; cited from earlier work
[3] = 3 mg/kg/day, rats; cited from earlier work
[4] = test system: cardiomyoblast cell line H9c2; conditions: H9c2 cardiomyoblasts; cited from earlier work

| SMILES | Specific DNA fragmentation in H9c2 (anti-apoptotic effect of MSC) (H9c2 cardiomyocytes; protocol 1: MSC pretreated 24 h with 1 μM, co-cultured with H9c2 under 350 μM H2O2 4 h) | Specific DNA fragmentation in H9c2 (anti-apoptotic effect of MSC) (H9c2 cardiomyocytes; protocol 2: H9c2 exposed to 350 μM H2O2 4 h, then co-culture in complete medium with MSC pretreated with 1 μM) | Specific DNA fragmentation in H9c2 (anti-apoptotic effect of MSC) (H9c2 cardiomyocytes; protocol 3: H9c2 350 μM H2O2 4 h, serum deprivation 1 h, then co-culture in complete medium with MSC pretreated with 1 μM) | Infarct size, mean value ([1]; MSC preconditioned 24 h (1-day) with 0.1 μM, n=7) | Decrease in infarct size ([1]; MSC preconditioned 24 h with 0.1 μM) [%] | Decrease in infarct size ([1]; MSC preconditioned 4 days (96 h) with 0.1 μM) [%] | Infarct size, mean value ([1]; MSC preconditioned 4 days with 0.1 μM, n=8) [%] | Carcinogenicity [2] | Carcinogenicity [3] | Protection from H2O2-induced cell death [4] |
| --- | --- | --- | --- | --- | --- | --- | --- | --- | --- | --- |
| O=C(NCCS(=O)(=O)c1ccc(C(F)(F)F)cn1)c1ccc(Cl)cc1 [GSK3787] | lose their capacity to protect cardiomyocytes from apoptosis | did not change MSC protective properties | lose their capacity to protect cardiomyocytes from apoptosis |  |  |  |  |  |  |  |
| Cc1cc(SCc2sc(-c3ccc(C(F)(F)F)cc3)nc2C)ccc1OCC(=O)O [GW501516] |  |  |  | 37.4 % of LV mass | 52.8 | 54.5 | 36.05 | caused cancer to develop rapidly in several organs | caused cancer to develop rapidly in several organs | protect the cardiomyoblast cell line H9c2 from H2O2-induced cell death |
